Data on 19 compounds can be found in PubChem BioAssay (NCI).

SMILES strings stand for the structures. Values joined by “and” are separate entries in the source; they are usually repeats but may differ in a detail not shown here. Equal entries are not always repeated.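 Five concentrations, 48 hours, 96-well plates. GI50 is the concentration that inhibits growth by half. At the TGI there is no net growth.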

One assay concerns SF-539 CNS. The experiment in a line: NCI anticancer screen, dose series, 48 h.
Regarding `COC(=O)c1cc2c3ccccc3[nH]c2c2ncccc12`, the GI50 was 17.4 µM and the TGI is > 100 µM.

The compound `CNC(=O)OCc1c(COC(=O)NC)c(-c2ccc(Cl)c(Cl)c2)n2c1SCC2` displayed a TGI of 26.9 µM.

Take `COc1cc(OC)cc(-c2ccc(-c3ccc(C(=N)N)o3)o2)c1`: the GI50 was 1.83 µM and the TGI worked out at 3.44 µM.

As for `C[C@]12CC[C@H](O)CC1=CC[C@@H]1[C@@H]2CC[C@]2(C)C(c3cccnc3)=CC[C@@H]12`, the GI50 was 8.31 µM and the TGI was > 100 µM.

Take `Cc1ccc2c(c1)C(=O)/C(=C/c1ncc([N+](=O)[O-])n1C)O2`: the GI50 is 2.26 µM and the TGI is 6.19 µM.

Consider `O=C(NCCOCCOCCNc1cccc2c1C(=O)N(C1CCCNC1=O)C2=O)c1cc2c(o1)C(=O)c1ccccc1C2=O` (centres undefined), for which the GI50 was 1.75 µM and the TGI came to 3.18 µM.

As to `O=C(CN1CCOCC1)Nc1ccc(Cn2nnc3c2C(=O)c2nnn(Cc4ccc(NC(=O)CN5CCOCC5)cc4)c2C3=O)cc1`, the GI50 was 0.304 µM and the TGI is 1.07 µM.

In the case of `O=C(c1ccco1)c1nc2ccc(C(F)(F)F)cc2[n+]([O-])c1C(F)(F)F`, the GI50 was 54 µM and the TGI is > 100 µM.

Regarding `C=C(CN1CCc2ccccc2C1)c1ccc(C(=O)Nc2cnccn2)cc1`, the GI50 was 7.59 µM and the TGI came out at 83.3 µM.

As for `CCCCC/C(C=C(C#N)C#N)=C/c1ccccc1`, the GI50 is 5.17 µM and the TGI came out at 17.7 µM.

`CC1CCC2(C(=O)O)CCC3(C)C(=CCC4C5(C)CC(O)C(O)C(C)(CO)C5C(O)CC43C)C2C1C` (centres undefined): the TGI amounted to 75.9 µM.

For the compound `Cc1ccc(S(=O)(=O)N(CCOc2ccc(/C(N)=N/Cl)cc2)CCOc2ccc(/C(N)=N\Cl)cc2)cc1`, the GI50 was 11 µM and the TGI is 27.2 µM.

In the case of `COc1ccc(C2=NN(C(=O)c3cc(OC)c(OC)c(OC)c3)C(c3ccc(C#N)cc3)C2)cc1OC` (centres undefined), the GI50 was 0.882 µM.

Regarding `CCOc1cccc(/C=N/NC(=O)c2ccccc2Nc2ccnc(C(F)(F)F)c2)c1O`, the GI50 was 0.501 µM and the TGI amounted to 6.33 µM.

With `CSc1cc(N=Nc2nc3ccccc3s2)c2ccccc2c1O`, the GI50 is 0.0413 µM and the TGI was 3.87 µM.

For `CCOC(=O)/C=C(/C(=O)OCC)n1cc(Cl)c(=O)n(CC(=O)OCC)c1=O`, the GI50 was 16.9 µM; the TGI was 9.69 µM and 32.7 µM.

For the compound `CC1=C(C(=O)Nc2ccc3[nH]ncc3c2)C(c2ccc3ccccc3c2)CC(=O)N1` (centres undefined), the GI50 is 9.18 µM and the TGI was > 25 µM.

As for `O=C1NNC=Nc2ccc(cc2)S(=O)(=O)c2ccc(cc2)N=CNNC1=O`, the TGI is > 100 µM.

For the compound `CC1OC(O[C@H]2C[C@@H](O)[C@]3(CO)[C@H]4[C@H](O)C[C@]5(C)[C@@H](C6=CC(=O)OC6)CC[C@]5(O)[C@@H]4CC[C@]3(O)C2)C(O)C(O)C1O` (some centres undefined), the GI50 was 21.4 µM and the TGI was found to be 39.5 µM.

For the next assay, the system named is TK-10 renal. Briefly: NCI anticancer screen, dose series, 48 h.
For the compound `COC(=O)c1cc2c3ccccc3[nH]c2c2ncccc12`, the GI50 is 12 µM and the TGI is > 100 µM.

`CNC(=O)OCc1c(COC(=O)NC)c(-c2ccc(Cl)c(Cl)c2)n2c1SCC2`: the TGI amounted to 19.1 µM.

Turning to `COc1cc(OC)cc(-c2ccc(-c3ccc(C(=N)N)o3)o2)c1`, the GI50 was 13.4 µM and the TGI worked out at 26.5 µM.

For the compound `C[C@]12CC[C@H](O)CC1=CC[C@@H]1[C@@H]2CC[C@]2(C)C(c3cccnc3)=CC[C@@H]12`, the GI50 was > 100 µM and the TGI was > 100 µM.

As for `Cc1ccc2c(c1)C(=O)/C(=C/c1ncc([N+](=O)[O-])n1C)O2`, the GI50 is 3.19 µM and the TGI was 11 µM.

As to `O=C(NCCOCCOCCNc1cccc2c1C(=O)N(C1CCCNC1=O)C2=O)c1cc2c(o1)C(=O)c1ccccc1C2=O` (centres undefined), the GI50 is 3.39 µM and the TGI stood at 7.14 µM.

Regarding `O=C(CN1CCOCC1)Nc1ccc(Cn2nnc3c2C(=O)c2nnn(Cc4ccc(NC(=O)CN5CCOCC5)cc4)c2C3=O)cc1`, the GI50 is 3.25 µM and the TGI amounted to 24.4 µM.

Regarding `O=C(c1ccco1)c1nc2ccc(C(F)(F)F)cc2[n+]([O-])c1C(F)(F)F`, the GI50 was 28.8 µM and the TGI was > 100 µM.

On to `C=C(CN1CCc2ccccc2C1)c1ccc(C(=O)Nc2cnccn2)cc1`, for which the GI50 is 86.3 µM and the TGI was > 100 µM.

In the case of `CCCCC/C(C=C(C#N)C#N)=C/c1ccccc1`, the GI50 is 6.54 µM and the TGI was found to be 42.9 µM.

With `CC1CCC2(C(=O)O)CCC3(C)C(=CCC4C5(C)CC(O)C(O)C(C)(CO)C5C(O)CC43C)C2C1C` (centres undefined), the TGI was > 100 µM.

`Cc1ccc(S(=O)(=O)N(CCOc2ccc(/C(N)=N/Cl)cc2)CCOc2ccc(/C(N)=N\Cl)cc2)cc1`: the GI50 is 40 µM and the TGI is > 100 µM.

With `COc1ccc(C2=NN(C(=O)c3cc(OC)c(OC)c(OC)c3)C(c3ccc(C#N)cc3)C2)cc1OC` (centres undefined), the GI50 was 3.65 µM and the TGI was > 45 µM.

`CCOc1cccc(/C=N/NC(=O)c2ccccc2Nc2ccnc(C(F)(F)F)c2)c1O`: the GI50 was 0.567 µM and the TGI was > 100 µM.

Take `CSc1cc(N=Nc2nc3ccccc3s2)c2ccccc2c1O`: the GI50 is 12.6 µM and the TGI was 28.7 µM.

Consider `CCOC(=O)/C=C(/C(=O)OCC)n1cc(Cl)c(=O)n(CC(=O)OCC)c1=O`, for which the GI50 was 11.5 µM; the TGI is 8.29 µM and 23.8 µM.

With `CC1=C(C(=O)Nc2ccc3[nH]ncc3c2)C(c2ccc3ccccc3c2)CC(=O)N1` (centres undefined), the GI50 was 8.73 µM and the TGI is > 25 µM.

Consider `O=C1NNC=Nc2ccc(cc2)S(=O)(=O)c2ccc(cc2)N=CNNC1=O`, for which the TGI is > 100 µM.

On to `CC1OC(O[C@H]2C[C@@H](O)[C@]3(CO)[C@H]4[C@H](O)C[C@]5(C)[C@@H](C6=CC(=O)OC6)CC[C@]5(O)[C@@H]4CC[C@]3(O)C2)C(O)C(O)C1O` (some centres undefined), for which the GI50 was 16.2 µM and the TGI stood at 30 µM.
